The numbers were not newly measured in US6465495B1, “Preparation of pyridone-based phosphotyrosine mimetics and uses thereof” (OSI Pharmaceuticals, Inc., priority 1998, dated 2002), which cites them from elsewhere.

The conditions of this series: literature values.

As for `N[C@@H](Cc1ccc(OP(=O)(O)O)cc1)C(=O)O` [pTyr], the pKA2 is 5.7.
